{
  "source": "paper PMC12320245",
  "about": "(International Journal of Biological Sciences, 2025)",
  "tested_on": "astrocytes",
  "assay": "Lysosomal pH detection (DND-189 fluorescence)",
  "format": "cell-based",
  "data": [
    {"smiles": "O=S(=O)(NCCNC/C=C/c1ccc(Br)cc1)c1cccc2cnccc12", "note": "[H-89]", "values": [
      {"measurement": "lysosomal pH (DND-189 fluorescence), co-treatment with PKA inhibitor", "setting": "BafA1 + AMX + H-89", "value": "abolished the lysosomal acidification effect of AMX"}
    ]},
    {"smiles": "CO/C1=C\\C(C)=C\\[C@@H](C)[C@@H](O)[C@@H](C)C/C(C)=C/C=C/[C@H](OC)[C@@H]([C@@H](C)[C@@H](O)[C@H](C)[C@@]2(O)C[C@@H](O)[C@H](C)[C@@H](C(C)C)O2)OC1=O", "note": "[bafilomycin A1]", "values": [
      {"measurement": "lysosomal pH (DND-189 fluorescence)", "setting": "100 nM BafA1, 1-hour exposure", "value": "markedly alkalinized lysosomes"}
    ]},
    {"smiles": "Nc1ncnc2c1ncn2[C@@H]1O[C@@H]2COP(=O)(O)O[C@H]2[C@H]1O", "note": "[cAMP, cyclic adenosine monophosphate]", "values": [
      {"measurement": "lysosomal pH (DND-189 fluorescence), reversal of BafA1 effect", "setting": "300 μM cAMP with 100 nM BafA1", "value": "effectively reversed BafA1-induced alkalization"}
    ]}
  ]
}
